Results reported in patent publication US20210330611A1, “THERAPY FOR NEUROLOGICAL DISEASES/DISORDERS” (priority 2020, published 2021).
Structures can show the parent of a compound that is named as a salt. Where two headings read alike, the source gives them in different places.

Legend:
[1] = test system: fibrin- and LPS-induced microglia activation; test: cells; format: cell-based, rat
primary rat microglia [2] = test: Cell toxicity (dead cells, size <150 μm2) in coated fibrin (cFib) assay;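 as to Fibrin % cell toxicity: share of dead cells sized under 150 µm2 at 10 µM in fibrin-stimulated microglia HTS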
[3] = test system: LPS-induced microglia activation; test: Image-based assay of LPS-induced microglia activation (HTS and dose response); format: cell-based, rat; settings: for inhibition at 10 µM: read-out: LPS % inhibition
[4] = test system: fibrin-induced microglia activation; test: Image-based assay of fibrin-induced microglia activation (HTS and dose response); format: cell-based, rat; settings: for inhibition at 10 µM: read-out: Fibrin % inhibition
primary rat microglia [5] = test: Cell toxicity (dead cells, size <150 μm2) in LPS assay
[6] = primary HTS, 10 μM, fibrin assay, dead cells size <150 μm2
[7] = Rattus norvegicus, Microglia, primary HTS, 10 μM, LPS-stimulated primary microglia
[8] = Rattus norvegicus, Microglia, primary HTS, 10 μM, fibrin-stimulated primary microglia
[9] = primary HTS, 10 μM, LPS assay, dead cells size <150 μm2
[10] = quadrant by fibrin and LPS inhibition in HTS of 1907 compounds
[11] = primary microglia HTS, fibrin stimulation, toxicity = cell size <150 μm2
[12] = Rattus norvegicus, Microglia, 48 h, primary microglia HTS, LPS stimulation, activation = cell size >800 μm2
[13] = Rattus norvegicus, Microglia, primary microglia HTS, fibrin stimulation, activation = cell size >800 μm2
[14] = primary microglia HTS, LPS stimulation, toxicity = cell size <150 μm2
[15] = primary microglia HTS, fibrin stimulation, decreased size (<150 μm^2) as marker of toxicity
[16] = primary microglia HTS, LPS stimulation, increased cell size (>800 μm^2) as marker of activation
[17] = primary microglia HTS, fibrin stimulation, increased cell size (>800 μm^2) as marker of activation
[18] = primary microglia HTS, LPS stimulation, decreased size (<150 μm^2) as marker of toxicity
[19] = Rattus norvegicus, Microglia, 48 h, primary microglia HTS, LPS stimulation, increased cell size (>800 μm^2) as marker of activation
[20] = Rattus norvegicus, Microglia, primary microglia HTS, fibrin stimulation, increased cell size (>800 μm^2) as marker of activation
[21] = HTS of 1907 compounds, quadrant by fibrin and LPS inhibition
[22] = primary microglia HTS, 10 μM, fibrin assay, cell size <150 μm^2 as marker of toxicity
[23] = Rattus norvegicus, Microglia, primary microglia HTS, 10 μM, LPS-stimulated, cell size >800 μm^2 as marker of activation
[24] = Rattus norvegicus, Microglia, primary microglia HTS, 10 μM, fibrin-stimulated, cell size >800 μm^2 as marker of activation
[25] = primary microglia HTS, 10 μM, LPS assay, cell size <150 μm^2 as marker of toxicity

Compound	Quadrant (FIG. 5b) ([1]; primary HTS, 10 μM)	Fibrin % cell toxicity (primary rat microglia [2]; [6]) [%]	inhibition at 10 µM [3, 7] [%]	inhibition at 10 µM [4, 8] [%]	LPS % cell toxicity (primary rat microglia [5]; [9]) [%]	Quadrant (FIG. 5b) [1, 10]	Fibrin % cell toxicity (primary rat microglia [2]; [15]) [%]	LPS % cell toxicity (primary rat microglia [5]; [18]) [%]	also measured
NS(=O)(=O)c1ccc(C(=O)O)cc1 [Carzenide]	Q4	1	14	-24	0				
CNC1(c2ccccc2Cl)CCCCC1=O (stereo not drawn) [Ketamine]						Q4			Fibrin % cell toxicity (primary rat microglia [2]; [11]): 1%; inhibition at 10 µM [3, 12]: -2%; inhibition at 10 µM [4, 13]: -86%; LPS % cell toxicity (primary rat microglia [5]; [14]): 0%
Merbromin						Q4	0	0	LPS % inhibition [3, 16]: 36%; Fibrin % inhibition [4, 17]: −6%
CC(=O)OC[C@H]1O[C@@H]([S-])[C@H](OC(C)=O)[C@@H](OC(C)=O)[C@@H]1OC(C)=O.CCP(CC)CC.[Au+] [Auranofin]						Q2	94	98	LPS % inhibition [3, 16]: 106%; Fibrin % inhibition [4, 17]: 106%
COc1ccnc(C[S+]([O-])c2nc3cc(OC(F)F)ccc3[n-]2)c1OC.[Na+] (stereo not drawn) [Pantoprazole, Pantoprazole Sodium Salt]						Q4	0	0	LPS % inhibition [3, 16]: −1%; Fibrin % inhibition [4, 17]: −8%
C1N2CN3CN1CN(C2)C3 [Hexamethylenetetramine]						Q4			Fibrin % cell toxicity (primary rat microglia [2]; [11]): 1%; inhibition at 10 µM [3, 12]: 20%; inhibition at 10 µM [4, 13]: -9%; LPS % cell toxicity (primary rat microglia [5]; [14]): 0%
O=C(OC[C@H]1O[C@@H](OC(=O)c2cc(O)c(O)c(OC(=O)c3cc(O)c(O)c(O)c3)c2)[C@H](OC(=O)c2cc(O)c(O)c(OC(=O)c3cc(O)c(O)c(O)c3)c2)[C@@H](OC(=O)c2cc(O)c(O)c(OC(=O)c3cc(O)c(O)c(O)c3)c2)[C@@H]1OC(=O)c1cc(O)c(O)c(OC(=O)c2cc(O)c(O)c(O)c2)c1)c1cc(O)c(O)c(OC(=O)c2cc(O)c(O)c(O)c2)c1 [Tannic acid, reference compound]						Q4	0	1	Quadrant (FIG. 5b) ([1]; Table 2, screen at 10 μM): Q4; Activity ([1]; Table 7, fib = fibrin, LPS, tox = toxicity): fib/LPS; inhibition at 10 µM [3, 19]: 32%; IC50 ([3]; Rattus norvegicus, Microglia, Table 7, read-out: LPS_IC50): 4.38 µM; IC50 ([4]; Rattus norvegicus, Microglia, Table 7, read-out: fib_IC50): 4.96 µM; inhibition at 10 µM [4, 20]: -60%
CN1C(=O)OC(C)(C)C1=O [Trimethadione]									Quadrant (FIG. 5b) [1, 21]: Q4; Fibrin % cell toxicity (primary rat microglia [2]; [22]): 1%; inhibition at 10 µM [3, 23]: 14%; inhibition at 10 µM [4, 24]: -5%; LPS % cell toxicity (primary rat microglia [5]; [25]): 0%
O=C(c1cccnc1)N1CCOCC1 [Nicopholine]						Q4	0	0	inhibition at 10 µM [3, 19]: 21%; inhibition at 10 µM [4, 20]: 26%
C[C@@H]1CN(c2c(F)c(F)c3c(=O)c(C(=O)O)cn(C4CC4)c3c2F)C[C@H](C)N1 [Orbifloxacin]						Q4	0	0	inhibition at 10 µM [3, 19]: 15%; inhibition at 10 µM [4, 20]: -18%
CCCCOc1cc(C(=O)NCCN(CC)CC)c2ccccc2n1 [Cinchocaine]	Q4	0	7	-57	0				
CCC(Cc1c(I)cc(I)c(N)c1I)C(=O)O (stereo not drawn) [Iopanic acid, reference compound]						Q3	1	0	Hit ([1]; HTS hit classification): HIT (Hits were defined as molecules that exhibited greater than 50% inhibition of either fibrin or LPS activation); Quadrant (FIG. 5b) ([1]; Table 1, screen at 10 μM): Q3; Cherry-picked Hit (Suppl. Table 7) ([1]; Table 3): HIT (Hits were defined as molecules that exhibited greater than 50% inhibition of either fibrin or LPS activation); Quadrant (FIG. 5b) ([1]; Table 3, screen at 10 μM): Q3; IC50 (primary rat microglia [2]; read-out: Cell Toxicity IC50 (uM) [cFib assay], Table 3): > 20 µM; IC50 ([3]; Table 1, dose response 0.001-20 μM, triplicates, primary rat microglia, 48 h, read-out: LPS IC50): > 20 µM; IC50 ([3]; Table 3, read-out: LPS IC50 (uM) (Suppl. Table 7)): > 20 µM; IC50 ([3]; dose response, LPS-induced microglia activation, read-out: LPS IC50): > 20 µM; LPS % inhibition [3, 16]: 35%; Fibrin Selectivity [4]: 4; Fibrin Selectivity (LOG10) [4]: 0.58; IC50 ([4]; Table 1, dose response 0.001-20 μM, triplicates, primary rat microglia, 48 h, read-out: Fibrin IC50): 5 µM; IC50 ([4]; Table 3, read-out: Fibrin IC50 (uM) (Suppl. Table 7)): 5 µM; IC50 ([4]; dose response, fibrin-induced microglia activation, read-out: Fibrin IC50): 5 µM; Fibrin % inhibition [4, 17]: 51%; IC50 (primary rat microglia [5]; read-out: Cell Toxicity IC50 (uM) [LPS assay], Table 3): > 20 µM
CC(C)(C)CC(C)(C)c1cc(Cc2cc(C(C)(C)CC(C)(C)C)cc(-n3nc4ccccc4n3)c2O)c(O)c(-n2nc3ccccc3n2)c1 [Bisoctrizole]	Q4	0	20	33	0				
O=C(O)c1cc(-c2ccccc2)nc2ccccc12 [Cinchophen]	Q4	1	36	-9	0				
C[C@@H]1C[C@H]2[C@@H]3CCC4=CC(=O)C=C[C@]4(C)[C@@]3(F)[C@@H](O)C[C@]2(C)[C@H]1C(=O)CO [Desoxymetasone]						Q2	3	3	LPS % inhibition [3, 16]: 105%; Fibrin % inhibition [4, 17]: 108%
C[C@H](CCC(=O)O)[C@H]1CC[C@H]2[C@@H]3[C@@H](O)C[C@@H]4C[C@H](O)CC[C@]4(C)[C@H]3CC[C@]12C [Ursodiol]									Quadrant (FIG. 5b) [1, 21]: Q4; Fibrin % cell toxicity (primary rat microglia [2]; [22]): 0%; LPS % inhibition ([3]; primary microglia HTS, 10 μM, LPS-stimulated, cell size >800 μm^2 as marker of activation): 18%; Fibrin % inhibition ([4]; primary microglia HTS, 10 μM, fibrin-stimulated, cell size >800 μm^2 as marker of activation): −21%; LPS % cell toxicity (primary rat microglia [5]; [25]): 0%
CO/N=C(\C(=O)N[C@@H]1C(=O)N2C(C(=O)O)=C(C[N+]3(C)CCCC3)CS[C@H]12)c1csc(N)n1 [Cefepime Hydrochloride]	Q4	1	16	7	0				
CCCCC1(COC(=O)CCC(=O)O)C(=O)N(c2ccccc2)N(c2ccccc2)C1=O [Suxibuzone]									Quadrant (FIG. 5b) [1, 21]: Q4; Fibrin % cell toxicity (primary rat microglia [2]; [22]): 1%; inhibition at 10 µM [3, 23]: 23%; inhibition at 10 µM [4, 24]: 25%; LPS % cell toxicity (primary rat microglia [5]; [25]): 0%
C[N+]12CCC(CC1)C(OC(=O)C(O)(c1ccccc1)c1ccccc1)C2 (stereo not drawn) [Clidinium Bromide]	Q4	1	9	-20	0				
CCC(=O)O[C@H](CC(=O)O)C[N+](C)(C)C [Levocarnitine Propionate Hydrochloride]						Q4			Fibrin % cell toxicity (primary rat microglia [2]; [11]): 1%; inhibition at 10 µM [3, 12]: 12%; inhibition at 10 µM [4, 13]: -16%; LPS % cell toxicity (primary rat microglia [5]; [14]): 1%
NC(=O)N/N=C/c1ccc([N+](=O)[O-])o1 [Nitrofural]						Q4	0	0	inhibition at 10 µM [3, 19]: 1%; inhibition at 10 µM [4, 20]: -14%
O=C(NCc1ccccc1)OCCO [Buramate]	Q4	1	17	9	0				
O=C1OC(CN2CCOCC2)CN1/N=C/c1ccc([N+](=O)[O-])o1 (stereo not drawn) [Furaltadone]						Q4			Fibrin % cell toxicity (primary rat microglia [2]; [11]): 1%; inhibition at 10 µM [3, 12]: 0%; inhibition at 10 µM [4, 13]: -60%; LPS % cell toxicity (primary rat microglia [5]; [14]): 0%
Cn1nnnc1SCC1=C(C(=O)O)N2C(=O)[C@@H](NC(=O)[C@H](O)c3ccccc3)[C@H]2SC1 [Cefamandole Sodium]	Q4	1	16	-12	0				
